Laboratory results taken from PubChem BioAssay AID1963845 (Molecular Pharmacology Branch, DTP, NCI, 2024).

Tested on: 429239-143-T-J1-PDC complex spheroid viability
Experiment: Anticancer human tumor 429239-143-T-J1-PDC patient-derived small cell lung carcinoma cell line growth inhibition [POLQ]
Conditions: for IC50: curve of first compound; for viability, T/C: stronger effect = lower value
Outline: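 Patient-derived tumour cells were co-cultured with HUVEC and mesenchymal stem cells as multicellular spheroids at 37 °C. They were treated with POLQ inhibitors (novobiocin, ART-558, RP6685) alone or combined with other agents. Top concentrations were at or near clinical Cmax (otherwise 10 microM; SN-38 at 1 microM), decreasing in half-log steps.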

[1] = second compound 0.0316 µM, first compound 0.0316 µM
[2] = second compound 0.0316 µM, first compound 0.1 µM
[3] = second compound 0.0316 µM, first compound 0.316 µM
[4] = second compound 0.0316 µM, first compound 1 µM
[5] = second compound 0.0316 µM, first compound 3.16 µM
[6] = second compound 0.0316 µM, first compound 10 µM
[7] = second compound 0.1 µM, first compound 0.0316 µM
[8] = second compound 0.1 µM, first compound 0.1 µM
[9] = second compound 0.1 µM, first compound 0.316 µM
[10] = second compound 0.1 µM, first compound 1 µM
[11] = second compound 0.1 µM, first compound 3.16 µM
[12] = second compound 0.1 µM, first compound 10 µM
[13] = second compound 0.316 µM, first compound 0.0316 µM
[14] = second compound 0.316 µM, first compound 0.1 µM
[15] = second compound 0.316 µM, first compound 0.316 µM
[16] = second compound 0.316 µM, first compound 1 µM
[17] = second compound 0.316 µM, first compound 3.16 µM
[18] = second compound 0.316 µM, first compound 10 µM
[19] = second compound 1 µM, first compound 0.0316 µM
[20] = second compound 1 µM, first compound 0.1 µM
[21] = second compound 1 µM, first compound 0.316 µM
[22] = second compound 1 µM, first compound 1 µM
[23] = second compound 1 µM, first compound 3.16 µM
[24] = second compound 1 µM, first compound 10 µM
[25] = second compound 3.16 µM, first compound 0.0316 µM
[26] = second compound 3.16 µM, first compound 0.1 µM
[27] = second compound 3.16 µM, first compound 0.316 µM
[28] = second compound 3.16 µM, first compound 1 µM
[29] = second compound 3.16 µM, first compound 3.16 µM
[30] = second compound 3.16 µM, first compound 10 µM
[31] = second compound 10 µM, first compound 0.0316 µM
[32] = second compound 10 µM, first compound 0.1 µM
[33] = second compound 10 µM, first compound 0.316 µM
[34] = second compound 10 µM, first compound 1 µM
[35] = second compound 10 µM, first compound 3.16 µM
[36] = second compound 10 µM, first compound 10 µM
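Note: luminescence signal used as surrogate measure of viable cells; spheroids exposed to compounds for seven days before readout.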
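Throughout, for viability, T/C: 100% = DMSO vehicle control viability as luminescence relative to vehicle.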

`CC1COCCN1c1cc(-c2ccnn2C)c2ccnc(-c3ccn[nH]3)c2n1` (stereo not drawn) + COC1C(OC(N)=O)C(O)C(Oc2ccc3c(O)c(NC(=O)c4ccc(O)c(CC=C(C)C)c4)c(=O)oc3c2C)OC1(C)C showed an IC50 (second compound 0.0316 µM) of 82.2 nM, an IC50 (second compound 0.1 µM) of 76.7 nM and an IC50 (second compound 0.316 µM) of 70.9 nM. The IC50 (second compound 1 µM) was 116 nM, the IC50 (second compound 3.16 µM) was 104 nM and the IC50 (second compound 10 µM) was 89.1 nM. For the same compound, the viability, T/C [1] was 85.1%, the viability, T/C [2] was 40.2% and the viability, T/C [3] was 27.5%. It also gave a viability, T/C [4] of 12.9%, a viability, T/C [5] of 10.1% and a viability, T/C [6] of 8.09%. It also gave a viability, T/C [7] of 71.9%, a viability, T/C [8] of 42% and a viability, T/C [9] of 28.8%. It also gave a viability, T/C [10] of 13.6%, a viability, T/C [11] of 8.87% and a viability, T/C [12] of 10.7%. The viability, T/C [13] was 75.5%, the viability, T/C [14] was 35.2% and the viability, T/C [15] was 28.5%. It also gave a viability, T/C [16] of 13.1%, a viability, T/C [17] of 10.9% and a viability, T/C [18] of 9.18%. The viability, T/C [19] was 79.2%, the viability, T/C [20] was 53.4% and the viability, T/C [21] was 27.6%. For the same compound, the viability, T/C [22] was 15.6%, the viability, T/C [23] was 10.5% and the viability, T/C [24] was 10.6%. It also gave a viability, T/C [25] of 83.8%, a viability, T/C [26] of 50.1% and a viability, T/C [27] of 29.3%. The viability, T/C [28] was 14.2%, the viability, T/C [29] was 10.6% and the viability, T/C [30] was 9.32%. The viability, T/C [31] was 72.7%, the viability, T/C [32] was 46.7% and the viability, T/C [33] was 28%. It also gave a viability, T/C [34] of 13.1%, a viability, T/C [35] of 9.4% and a viability, T/C [36] of 9.29%.
For `CC1COCCN1c1cc(C2(S(C)(=N)=O)CC2)nc(-c2ccnc3[nH]ccc23)n1` (stereo not drawn) + COC1C(OC(N)=O)C(O)C(Oc2ccc3c(O)c(NC(=O)c4ccc(O)c(CC=C(C)C)c4)c(=O)oc3c2C)OC1(C)C, the IC50 (second compound 0.0316 µM) was 2270 nM, the IC50 (second compound 0.1 µM) was 2120 nM and the IC50 (second compound 0.316 µM) was 1990 nM. It also gave an IC50 (second compound 1 µM) of 2430 nM, an IC50 (second compound 3.16 µM) of 1880 nM and an IC50 (second compound 10 µM) of 2580 nM. It also gave a viability, T/C [1] of 116%, a viability, T/C [2] of 100% and a viability, T/C [3] of 89.4%. It also gave a viability, T/C [4] of 79.4%, a viability, T/C [5] of 35.6% and a viability, T/C [6] of 15.6%. It also gave a viability, T/C [7] of 107%, a viability, T/C [8] of 105% and a viability, T/C [9] of 96.2%. The viability, T/C [10] was 73.5%, the viability, T/C [11] was 37.6% and the viability, T/C [12] was 15.1%. The viability, T/C [13] was 103%, the viability, T/C [14] was 94.3% and the viability, T/C [15] was 100%. For the same compound, the viability, T/C [16] was 61.1%, the viability, T/C [17] was 42.4% and the viability, T/C [18] was 17.3%. It also gave a viability, T/C [19] of 120%, a viability, T/C [20] of 94.1% and a viability, T/C [21] of 95.3%. For the same compound, the viability, T/C [22] was 88.1%, the viability, T/C [23] was 38.1% and the viability, T/C [24] was 21.4%. It also gave a viability, T/C [25] of 90.6%, a viability, T/C [26] of 109% and a viability, T/C [27] of 100%. For the same compound, the viability, T/C [28] was 72.6%, the viability, T/C [29] was 31.7% and the viability, T/C [30] was 18.8%. The viability, T/C [31] was 89.8%, the viability, T/C [32] was 103% and the viability, T/C [33] was 106%. The viability, T/C [34] was 72.1%, the viability, T/C [35] was 47% and the viability, T/C [36] was 16.6%.
With `COc1ccc([C@@H](O)c2cc(-c3ncnc4cc(N5CCOCC5)ccc34)c(F)cc2Cl)nn1` + COC1C(OC(N)=O)C(O)C(Oc2ccc3c(O)c(NC(=O)c4ccc(O)c(CC=C(C)C)c4)c(=O)oc3c2C)OC1(C)C the IC50 (second compound 0.0316 µM) was 3070 nM, the IC50 (second compound 0.1 µM) was 3330 nM and the IC50 (second compound 0.316 µM) was 3950 nM. For the same compound, the IC50 (second compound 1 µM) was 3000 nM, the IC50 (second compound 3.16 µM) was 3780 nM and the IC50 (second compound 10 µM) was 3640 nM. The viability, T/C [1] was 99.5%, the viability, T/C [2] was 89.1% and the viability, T/C [3] was 94.5%. It also gave a viability, T/C [4] of 85.6%, a viability, T/C [5] of 49.1% and a viability, T/C [6] of 8.54%. For the same compound, the viability, T/C [7] was 96.2%, the viability, T/C [8] was 87.7% and the viability, T/C [9] was 100%. For the same compound, the viability, T/C [10] was 87.2%, the viability, T/C [11] was 51.9% and the viability, T/C [12] was 10.8%. The viability, T/C [13] was 109%, the viability, T/C [14] was 101% and the viability, T/C [15] was 99.4%. For the same compound, the viability, T/C [16] was 85.4%, the viability, T/C [17] was 60% and the viability, T/C [18] was 9.63%. For the same compound, the viability, T/C [19] was 103%, the viability, T/C [20] was 96.8% and the viability, T/C [21] was 92.5%. It also gave a viability, T/C [22] of 76.4%, a viability, T/C [23] of 48.7% and a viability, T/C [24] of 9.8%. It also gave a viability, T/C [25] of 96.6%, a viability, T/C [26] of 102% and a viability, T/C [27] of 91.1%. For the same compound, the viability, T/C [28] was 93.4%, the viability, T/C [29] was 57% and the viability, T/C [30] was 11.2%. For the same compound, the viability, T/C [31] was 107%, the viability, T/C [32] was 107% and the viability, T/C [33] was 95.3%. For the same compound, the viability, T/C [34] was 78.3%, the viability, T/C [35] was 59.3% and the viability, T/C [36] was 8.07%.
In the case of `Cn1ncnc1[C@H]1c2n[nH]c(=O)c3cc(F)cc(c23)N[C@@H]1c1ccc(F)cc1` + COC1C(OC(N)=O)C(O)C(Oc2ccc3c(O)c(NC(=O)c4ccc(O)c(CC=C(C)C)c4)c(=O)oc3c2C)OC1(C)C, the IC50 (second compound 0.0316 µM) is reported as 24.5 nM, the IC50 (second compound 0.1 µM) is reported as 13.9 nM and the IC50 (second compound 0.316 µM) is reported as 23.4 nM. It also gave an IC50 (second compound 1 µM) of 15.4 nM, an IC50 (second compound 3.16 µM) of 13.7 nM and an IC50 (second compound 10 µM) of 14.3 nM. The viability, T/C (second compound 0.0316 µM, first compound 0.000316 µM) was 97.7%, the viability, T/C (second compound 0.0316 µM, first compound 0.001 µM) was 89.6% and the viability, T/C (second compound 0.0316 µM, first compound 0.00316 µM) was 83.6%. It also gave a viability, T/C (second compound 0.0316 µM, first compound 0.01 µM) of 62.6%, a viability, T/C [1] of 47% and a viability, T/C [2] of 27.8%. The viability, T/C (second compound 0.1 µM, first compound 0.000316 µM) was 104%, the viability, T/C (second compound 0.1 µM, first compound 0.001 µM) was 105% and the viability, T/C (second compound 0.1 µM, first compound 0.00316 µM) was 84.6%. For the same compound, the viability, T/C (second compound 0.1 µM, first compound 0.01 µM) was 51.5%, the viability, T/C [7] was 45.5% and the viability, T/C [8] was 27.8%. The viability, T/C (second compound 0.316 µM, first compound 0.000316 µM) was 94.2%, the viability, T/C (second compound 0.316 µM, first compound 0.001 µM) was 92.4% and the viability, T/C (second compound 0.316 µM, first compound 0.00316 µM) was 88.7%. It also gave a viability, T/C (second compound 0.316 µM, first compound 0.01 µM) of 64.5%, a viability, T/C [13] of 45.7% and a viability, T/C [14] of 22.8%. It also gave a viability, T/C (second compound 1 µM, first compound 0.000316 µM) of 98.4%, a viability, T/C (second compound 1 µM, first compound 0.001 µM) of 93.5% and a viability, T/C (second compound 1 µM, first compound 0.00316 µM) of 82.9%. The viability, T/C (second compound 1 µM, first compound 0.01 µM) was 57.6%, the viability, T/C [19] was 36.8% and the viability, T/C [20] was 25.4%. The viability, T/C (second compound 3.16 µM, first compound 0.000316 µM) was 92.1%, the viability, T/C (second compound 3.16 µM, first compound 0.001 µM) was 90% and the viability, T/C (second compound 3.16 µM, first compound 0.00316 µM) was 77.7%. For the same compound, the viability, T/C (second compound 3.16 µM, first compound 0.01 µM) was 58.1%, the viability, T/C [25] was 31.5% and the viability, T/C [26] was 27.8%. The viability, T/C (second compound 10 µM, first compound 0.000316 µM) was 89.5%, the viability, T/C (second compound 10 µM, first compound 0.001 µM) was 90.9% and the viability, T/C (second compound 10 µM, first compound 0.00316 µM) was 78.9%. It also gave a viability, T/C (second compound 10 µM, first compound 0.01 µM) of 53.4%, a viability, T/C [31] of 39.6% and a viability, T/C [32] of 25.1%.
